Results reported in paper PMC10253812, “Novel 2-alkythio-4-chloro-N-[imino(heteroaryl)methyl]benzenesulfonamide Derivatives: Synthesis, Molecular Structure, Anticancer Activity and Metabolic Stability” (International Journal of Molecular Sciences, 2023).

Experiments:
[1] = test system: MCF-7 (breast cancer) cell line; experiment: MTT cell viability assay, MCF-7; type: cell-based, human; conditions: MTT assay, 72 h of incubation
Method: (§1) Compounds 8–24 were evaluated in vitro for their cytotoxic effect against three human cancer cell lines, i.e., HeLa (cervical cancer), HCT-116 (colon cancer) and MCF-7 (breast cancer), and the non-tumor cell line HaCaT using the MTT assay after 72 h of incubation. The results of tests are presented in Table 1 as IC50, indicating the concentration required for 50% inhibition of cell viability. Compounds 8–10 and 14–18 are not presented in the Table 1 because of their low potency (IC50 > 100 µM).
(§2) All chemicals, if not stated otherwise, were obtained from Sigma-Aldrich (St. Louis, MO, USA). The MCF-7, HeLa and HaCaT cell lines were purchased from Cell Lines Services (Eppelheim, Germany), and the HCT-116 cell line was purchased from ATCC (ATCC-No: CCL-247). The cells were cultured in Dulbecco’s modified Eagle’s medium (DMEM) supplemented with 10% fetal bovine serum, 2 mM glutamine, 100 units/mL of penicillin and 100 μg/mL of streptomycin. The cultures were maintained in a humidified atmosphere with 5% CO2 at 37 °C, in an incubator (Heraeus, HeraCell).
(§3) Cytotoxicity assay: Cell viability was determined using the MTT (3-(4,5-dimethylthiazol-2-yl)-2,5diphenyltetrazoliumbromide) assay. The cells were seeded in 96-well plates at a density of 5 × 10^3 cells/well and treated for 24, 48 and 72 h with the examined compounds in the concentration range 1–100 μM. Following treatment, MTT (0.5 mg/mL) was added to the medium, and the cells were further incubated for 2 h at 37 °C. the cells were lysed with DMSO, and the absorbance of the formazan solution was measured at 550 nm with a plate reader (Victor, 1420 multilabel counter). The experiment was performed in triplicate. The values are expressed as the mean ± SD of at least three independent experiments.

[2] = test system: HaCaT (immortalized human keratinocytes); experiment: MTT cell viability assay, non-tumor HaCaT; type: cell-based; conditions: 72 h of incubation, non-tumor cell line
Method: as §1
We also performed an assay on the non-tumor cell line HaCaT (immortalized human keratinocytes) to assess if the effect of 11–13 was selective toward HeLa cells or resulted from a more general toxic activity.
as §2, §3

[3] = test system: HeLa, HCT-116 and MCF-7 cell lines; experiment: MTT screening, statements pooled over the three cancer cell lines; type: cell-based; conditions: Homo sapiens, 72 h, HCT-116, MCF-7, read-out: IC50 (low potency, not shown in Table 1)
Method: as §1, §2, §3

[4] = test system: HeLa (cervical cancer) cell line; experiment: MTT cell viability assay, HeLa; type: cell-based, human; conditions: Homo sapiens, HeLa; MTT assay, 72 h of incubation; read-out: IC50 HeLa
Method: as §1
The cytotoxic activity of 11–13 was determined in a time-dependent manner with the MTT assay (Figure 3).
HeLa cells were treated with 11, 12 and 13 in the concentration range of 0–20 µM. […] After 48 h, the IC50 values for compounds 11, 12 and 13 were 6, 7 and 6 µM, respectively.
as §2, §3

[5] = test system: HCT-116 (colon cancer) cell line; experiment: MTT cell viability assay, HCT-116; type: cell-based; conditions: Homo sapiens, 72 h of incubation
Method: as §1, §2, §3

Row | SMILES | IC50 [3] [µM] | IC50 ([1]; Homo sapiens, MCF7) [µM] | IC50 [4] [µM] | IC50 [5] [µM] | other results
1 | N.N.[Cl][Pt][Cl] [Cisplatin, reference compound] | – | – | – | – | IC50 [1]: 3 ± 0.1 µM; IC50 [2]: 7.7 ± 0.2 µM
2 | Cc1cc(S(=O)(=O)NC(=N)n2ccn(C)c2=S)c(SCc2ccccc2)cc1Cl [Compound 8, 2-Benzylthio-4-chloro-N-[imino(3-methyl-2-thioxo-2,3-dihydro-1H-imidazol-1-yl)methyl]-5-methylbenzenesulfonamide] | > 100 | – | – | – | –
3 | Cc1cc(S(=O)(=O)NC(=N)n2ccn(C)c2=S)c(SCc2cccc(C(F)(F)F)c2)cc1Cl [Compound 9, 4-Chloro-N-[imino(3-methyl-2-thioxo-2,3-dihydro-1H-imidazol-1-yl)methyl]-5-methyl-2-(3-trifluoromethylbenzylthio)benzenesulfonamide] | > 100 | – | – | – | –
4 | Cc1cc(S(=O)(=O)NC(=N)n2ccn(C)c2=S)c(SCc2ccc(C(F)(F)F)cc2)cc1Cl [Compound 10, 4-Chloro-N-[imino(3-methyl-2-thioxo-2,3-dihydro-1H-imidazol-1-yl)methyl]-5-methyl-2-(4-trifluoromethylbenzylthio)benzenesulfonamide] | > 100 | – | – | – | –
5 | CCOC(=O)CSc1cc(Cl)c(C)cc1S(=O)(=O)NC(=N)n1ccn(C)c1=S [Compound 14, 4-Chloro-2-ethoxycarbonylmethylthio-N-[imino(3-methyl-2-thioxo-2,3-dihydro-1H-imidazol-1-yl)methyl]-5-methylbenzenesulfonamide] | > 100 | – | – | – | –
6 | Cc1cc(S(=O)(=O)NC(=N)n2ncn(C)c2=S)c(SCc2ccccc2)cc1Cl [Compound 15, 2-Benzylthio-4-chloro-5-methyl-N-[imino(4-methyl-5-thioxo-4,5-dihydro-1H-1,2,4-triazol-1-yl)methyl]benzenesulfonamide] | > 100 | – | – | – | –
7 | Cc1cc(S(=O)(=O)NC(=N)n2ncn(C)c2=S)c(SCc2ccc(C(F)(F)F)cc2)cc1Cl [Compound 17, 4-Chloro-N-[imino(4-methyl-5-thioxo-4,5-dihydro-1H-1,2,4-triazol-1-yl)methyl]-5-methyl-2-(4-trifluoromethylbenzylthio)benzenesulfonamide] | > 100 | – | – | – | –
8 | Cc1cc(S(=O)(=O)NC(=N)n2ncn(C)c2=S)c(SCc2ccc(Cl)cc2)cc1Cl [Compound 18, 4-Chloro-2-(4-chlorobenzylthio)-N-[imino(4-methyl-5-thioxo-4,5-dihydro-1H-1,2,4-triazol-1-yl)methyl]5-methylbenzenesulfonamide] | > 100 | – | – | – | –

The next lines start with results.

Row | IC50 [3] [µM] | IC50 ([1]; Homo sapiens, MCF7) [µM] | IC50 [4] [µM] | IC50 [5] [µM] | SMILES | other results
9 | – | 82 ± 4 | 60 ± 3 | 36 ± 1 | Cc1cc(S(=O)(=O)NC(=N)n2c(=S)[nH]c3ccccc32)c(SCc2ccccc2)cc1Cl [Compound 19, 2-Benzylthio-4-chloro-5-methyl-N-[imino-(2-thioxo-2,3-dihydro-1H-benzo[d]imidazol-1-yl)methyl]benzenesulfonamide] | –
10 | – | 49 ± 1 | 43 ± 1 | 17 ± 0.5 | Cc1cc(S(=O)(=O)NC(=N)n2c(=S)[nH]c3ccccc32)c(SCc2cccc(C(F)(F)F)c2)cc1Cl [Compound 20, 4-Chloro-N-[imino-(2-thioxo-2,3-dihydro-1H-benzo[d]imidazol-1-yl)methyl]-5-methyl-2-(3-trifluoromethylbenzylthio)benzenesulfonamide] | –
11 | – | 62 ± 3 | 52 ± 1 | 23 ± 0.2 | Cc1cc(S(=O)(=O)NC(=N)n2c(=S)[nH]c3ccccc32)c(SCc2ccc(C(F)(F)F)cc2)cc1Cl [Compound 21, 4-Chloro-N-[imino-(2-thioxo-2,3-dihydro-1H-benzo[d]imidazol-1-yl)methyl]-5-methyl-2-(4-trifluoromethylbenzylthio)benzenesulfonamide] | –
12 | – | 73 ± 2 | 49 ± 2 | 27 ± 0.5 | Cc1cc(S(=O)(=O)NC(=N)n2c(=S)[nH]c3ccccc32)c(SCc2ccc(Cl)cc2)cc1Cl [Compound 22, 4-Chloro-2-(4-chlorobenzylthio)-N-[imino-(2-thioxo-2,3-dihydro-1H-benzo[d]imidazol-1-yl)methyl]-5-methylbenzenesulfonamide] | –
13 | – | 50 ± 2 | 57 ± 1 | 34 ± 0.3 | Cc1cc(S(=O)(=O)NC(=N)n2c(=S)[nH]c3ccccc32)c(SCc2cc3c(cc2Cl)OCO3)cc1Cl [Compound 23, 4-Chloro-2-(6-chlorobenzo [1,3]dioxol-5-ylmethylthio)-N-[imino-(2-thioxo-2,3-dihydro-1H-benzo[d]imidazol-1-yl)methyl]-5-methylbenzenesulfonamide] | –
14 | – | 56 ± 2 | 33 ± 1 | 21 ± 0.6 | Cc1cc(S(=O)(=O)NC(=N)n2c(=S)[nH]c3ccccc32)c(SCc2cccc3ccccc23)cc1Cl [Compound 24, 4-Chloro-N-[imino-(2-thioxo-2,3-dihydro-1H-benzo[d]imidazol-1-yl)methyl]-5-methyl-2-(naphthalen-1-ylmethylthio)benzenesulfonamide] | –
